The record followed here is ChEMBL document CHEMBL5352481, “Discovery of small-molecule protein stabilizers toward exogenous alpha-l-iduronidase to reduce the accumulated heparan sulfate in mucopolysaccharidosis type I cells” (Eur J Med Chem, 2023).

For assay [1], the target named is T1, Alpha-L-iduronidase (Homo sapiens) (UniProt P35475).
T1 sequence (whole entry): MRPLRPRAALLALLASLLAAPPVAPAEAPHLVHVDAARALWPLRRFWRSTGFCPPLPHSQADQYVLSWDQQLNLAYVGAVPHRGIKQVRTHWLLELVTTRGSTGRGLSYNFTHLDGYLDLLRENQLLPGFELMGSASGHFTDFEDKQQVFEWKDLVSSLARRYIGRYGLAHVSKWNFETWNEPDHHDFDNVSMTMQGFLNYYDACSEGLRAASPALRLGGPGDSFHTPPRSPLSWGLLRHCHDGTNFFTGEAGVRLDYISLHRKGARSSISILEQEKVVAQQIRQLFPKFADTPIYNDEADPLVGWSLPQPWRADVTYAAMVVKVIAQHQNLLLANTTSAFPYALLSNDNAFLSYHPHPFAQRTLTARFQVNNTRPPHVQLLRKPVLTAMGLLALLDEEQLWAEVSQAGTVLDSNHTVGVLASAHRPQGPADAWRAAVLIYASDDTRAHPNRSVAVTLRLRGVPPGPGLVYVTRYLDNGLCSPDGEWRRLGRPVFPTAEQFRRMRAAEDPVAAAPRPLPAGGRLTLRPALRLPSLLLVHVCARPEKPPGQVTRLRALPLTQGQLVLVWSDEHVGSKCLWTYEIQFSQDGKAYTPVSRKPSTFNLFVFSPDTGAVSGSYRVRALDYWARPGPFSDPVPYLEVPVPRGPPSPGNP
As to the kind of experiment: Inhibition of human recombinant alpha-L-iduronidase using 4-methylumbelliferyl-alpha-iduronide as fluorogenic substrate at 250 uM relative to control.

Assay [2] concerns the target T1, Alpha-L-iduronidase (Homo sapiens). Kind of assay: Stabilization of human recombinant alpha-L-iduronidase in human GM01391 cells assessed as increase in IDUA activity at 100 uM incubated for 1 day followed by 1 day washout. The assay is classed as cell-based.
Assay [3] addresses T2, Alpha-L-iduronidase (Homo sapiens, UniProt P35475).
T2 sequence (P35475 whole entry): T1 sequence (whole entry)
Kind of assay: Inhibition of alpha-L-iduronidase (unknown origin) assessed as inhibition constant.

The target in assay [4] is T2, Alpha-L-iduronidase. As to the kind of experiment: Inhibition of human alpha-L-iduronidase using 4-methylumbelliferyl-alpha-L-iduronide as substrate assessed as inhibition constant.
For assay [5], the target named is T2, Alpha-L-iduronidase. Kind of assay: Inhibition of human recombinant alpha-L-iduronidase using 4-methylumbelliferyl-alpha-iduronide as fluorogenic substrate.
Assay [6] addresses T2, Alpha-L-iduronidase. As to the kind of experiment: Inhibition of human recombinant alpha-L-iduronidase using 4-methylumbelliferyl-alpha-iduronide as fluorogenic substrate assessed as inhibition constant by Lineweaver-Burk plot analysis.
Assay [7] deals with T1, Alpha-L-iduronidase (Homo sapiens). As to the kind of experiment: Stabilization of human recombinant alpha-L-iduronidase in human GM01391 cells assessed as fold increase in IDUA activity at 100 uM incubated for 1 day followed by 1 day washout relative to control. The assay is classed as cell-based.
Assay [8] shares this target. Kind of assay: Stabilization of human recombinant alpha-L-iduronidase in human GM01391 cells assessed as fold increase in IDUA activity at 500 uM incubated for 1 day followed by 1 day washout relative to control. The format is cell-based.
For assay [9] the target is unchanged. Kind of assay: Stabilization of human recombinant alpha-L-iduronidase in human GM01391 cells assessed as fold increase in IDUA activity at 500 uM measured after 9 days relative to control. The format is cell-based. The settings on record: time 9.0 day.
Assay [10] has the same target. Kind of assay: Stabilization of human recombinant alpha-L-iduronidase in human GM01391 cells assessed as reduction in heparan sulfate level at 500 uM incubated for 1 day followed by 1 day washout. The format is cell-based.
The target is the same in assay [11]. As to the kind of experiment: Stabilization of human recombinant alpha-L-iduronidase in human GM02846 cells assessed as increase in IDUA activity incubated for 1 day followed by 1 day washout. The format is cell-based. Particulars: dose 10-500 µM.
Assay [12] shares this target. As to the kind of experiment: Stabilization of human recombinant alpha-L-iduronidase in human GM02846 cells assessed as reduction in heparan sulfate level at 10 to 500 uM incubated for 1 day followed by 1 day washout. The format is cell-based. The settings on record: dose 10-500 µM.
For assay [13], the target named is T2, Alpha-L-iduronidase. Kind of assay: Inhibition of human seminal fluid alpha-L-iduronidase using 4-methylumbelliferyl-alpha-L-idosiduronic acid as substrate incubated for 1 hr by fluorescence based assay.
Assay [14] addresses T1, Alpha-L-iduronidase (Homo sapiens). Kind of assay: Inhibition of human recombinant alpha-L-iduronidase using 4-methylumbelliferyl-alpha-L-iduronide as fluorogenic substrate at 0.1 mM relative to control.

Activity calls are given as the source filed them. The rule behind the calls is not given here.

Consider `NCC[C@@H]1N[C@@H](C(=O)O)[C@@H](O)[C@H](O)[C@H]1O`, for which the inhibition in [1] is < 10%. Also, the result in assay [2] was inactive.

Consider `O=C(O)[C@]1(F)O[C@@H](F)[C@H](O)[C@@H](O)[C@@H]1O`, for which the Ki on Alpha-L-iduronidase [3] was found to be 1.2 µM.

With `O=C(O)[C@H]1[C@@H](O)[C@H](O)[C@@H](O)c2nnnn21`, the Ki at Alpha-L-iduronidase [4] was 1300 µM.

`NCC[C@@H]1O[C@@H](C(=O)O)[C@@H](O)[C@H](O)[C@H]1O`: at Alpha-L-iduronidase [5], the concentration for half-maximal inhibition (IC50) came to 6.7 µM. In addition, the Ki at Alpha-L-iduronidase [6] is 4 µM. Moreover, the fold change (FC) in assay [7] is 1.4; in [8] it was 3; in [9], > 1.6. In addition, the outcome in [10] and in [12] was Active. Further, in [11], the Activity result is “Dose-Dependent Effect”.

Consider `O=C(Cc1ccccc1OP(=O)(O)O)NCC[C@@H]1N[C@@H](C(=O)O)[C@@H](O)[C@H](O)[C@H]1O`, for which the inhibition in assay [1] came to 43%. In addition, the result in assay [2] was inactive.

For `O=C(Cc1ccccc1OP(=O)(O)O)NCC[C@@H]1O[C@@H](C(=O)O)[C@@H](O)[C@H](O)[C@H]1O`, at Alpha-L-iduronidase [5], the IC50 was determined as 1 µM. For the same molecule, the result in assay [2] was inactive.

On Alpha-L-iduronidase [13], `O=C1O[C@H]([C@@H](O)C(=O)O)[C@H](O)[C@H]1O` gave an IC50 of 40 µM.

Consider `O=C(Cc1ccc(OP(=O)(O)O)cc1)NCC[C@@H]1O[C@@H](C(=O)O)[C@@H](O)[C@H](O)[C@H]1O`, for which the IC50 at Alpha-L-iduronidase [5] was found to be 5.4 µM. Also, in assay [2], the outcome was Active.

Take `O=C(Cc1cccc(OP(=O)(O)O)c1)NCC[C@@H]1N[C@@H](C(=O)O)[C@@H](O)[C@H](O)[C@H]1O`: in [1], the inhibition was < 10%. In [2], the result was inactive.

As for `O=C(Cc1ccc(OP(=O)(O)O)cc1)NCC[C@@H]1N[C@@H](C(=O)O)[C@@H](O)[C@H](O)[C@H]1O`, the inhibition in assay [1] is < 10%. In addition, the outcome in [2] was inactive.

Consider `O=C1N[C@@H](C(=O)O)[C@@H](O)[C@H](O)[C@H]1O`, for which the inhibition constant (Ki) at Alpha-L-iduronidase [4] was determined as 94 µM.

`O=C(/C=C/c1ccccc1)NCc1cn([C@@H]2O[C@@H](C(=O)O)[C@@H](O)[C@H](O)[C@H]2O)nn1`: the inhibition in assay [14] worked out at 74%.

Consider `O=C(Cc1cccc(OP(=O)(O)O)c1)NCC[C@@H]1O[C@@H](C(=O)O)[C@@H](O)[C@H](O)[C@H]1O`, for which the half-maximal inhibitory concentration (IC50) on Alpha-L-iduronidase [5] turned out to be 4 µM. The fold change (FC) in [7] came to 1.6.
